Measurements as given in US4948908A, “Organo phosphorus compounds and pesticidal compositions” (priority 1986, dated 1990).

Experiment: solubility of the quarternary ammonium salt in solvents
Format: physicochemical
Description: Preparation of Phenyl bis[4-NNN-trimethyl-ammonium-iodide-phenylamido]Phosphate, also designated phosphoric-acid-phenyl-ester-bis[4-NNN-trimethyl-ammonium-iodide-phenyl-amide] [drawing 25] The diamine V (Example 1) is dissolved in a mixture of 4:1 acetone:0.5MNaHCO3, and reacted overnight with excess Mel, methyliodide, at room temperature. The reaction mixture is then evaporated, dissolved in water and washed with ethyl acetate to remove impurities. The aqueous phase is then evaporated to dryness and the residue is washed several times with acetone to remove Sodiumiodide obtained as a by-product. The compound obtained is highly hygroscopic. The quarternary ammonium salt is very soluble in water but not in ethanol or acetone. It gives a negative reaction with TNBS.

For C[N+](C)(C)c1ccc(NP(=O)(Nc2ccc([N+](C)(C)C)cc2)Oc2ccccc2)cc1 [Example 3, Phenyl bis[4-NNN-trimethyl-ammonium-iodide-phenylamido]Phosphate], the “solubility in ethanol or acetone” value (ethanol or acetone) was “not” and the solubility in water (water) was “very soluble”.
